The record followed here is patent US6083944A, “Quinoline-containing α-ketoamide cysteine and serine protease inhibitors” (Cephalon, Inc., priority 1998, dated 2000).

Each structure is given as a SMILES string.

The first experiment concerns the target T1, Recombinant human calpain I (Homo sapiens, UniProt P07384).
T1 construct: made in house
T1 sequence (P07384 1-714): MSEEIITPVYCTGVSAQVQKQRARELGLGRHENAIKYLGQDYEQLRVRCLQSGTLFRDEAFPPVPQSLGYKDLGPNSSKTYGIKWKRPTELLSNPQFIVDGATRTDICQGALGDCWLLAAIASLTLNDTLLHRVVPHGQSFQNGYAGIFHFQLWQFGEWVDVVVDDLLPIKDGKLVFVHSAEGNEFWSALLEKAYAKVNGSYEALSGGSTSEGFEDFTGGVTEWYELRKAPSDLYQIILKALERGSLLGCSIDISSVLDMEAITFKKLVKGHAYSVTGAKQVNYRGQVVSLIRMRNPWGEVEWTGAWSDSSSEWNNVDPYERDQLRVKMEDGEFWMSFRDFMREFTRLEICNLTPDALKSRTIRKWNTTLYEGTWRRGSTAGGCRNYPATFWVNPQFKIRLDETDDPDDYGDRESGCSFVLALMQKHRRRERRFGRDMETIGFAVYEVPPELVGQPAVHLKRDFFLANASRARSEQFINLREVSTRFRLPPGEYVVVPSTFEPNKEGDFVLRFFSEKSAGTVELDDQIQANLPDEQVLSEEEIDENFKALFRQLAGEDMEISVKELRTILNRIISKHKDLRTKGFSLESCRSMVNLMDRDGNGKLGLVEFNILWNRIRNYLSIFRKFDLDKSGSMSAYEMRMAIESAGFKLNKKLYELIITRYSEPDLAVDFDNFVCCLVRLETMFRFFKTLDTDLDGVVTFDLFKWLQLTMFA
Briefly: Inhibition of calpain I (Succ-Leu-Tyr-MNA hydrolysis). The format is biochemical. The settings on record: Table 5; ** explained as 10,000 nM only in footnotes to Tables 2-4. How it is done: To evaluate inhibitory activity, stock solutions (40 times concentrated) of each compound to be tested were prepared in 100% anhydrous DMSO and 5 μl of each inhibitor preparation was aliquoted into each of three wells of a 96-well plate. Recombinant human calpain I, prepared by the method of Meyer et al. (Biochem. J. 1996, 314: 511-519), was diluted into assay buffer (i.e., 50 mM Tris, 50 mM NaCl, 1 mM EDTA, 1 mM EGTA, and 5 mM β-mercaptoethanol, pH 7.5, including 0.2 mM Succ-Leu-Tyr-MNA), and 175 μl was aliquoted into the same wells containing the independent inhibitor stocks as well as to positive control wells containing 5 μl DMSO, but no compound. To start the reaction, 20 μl of 50 mM CaCl2 in assay buffer was added to all wells of the plate, excepting three, which were used as background signal baseline controls. Substrate hydrolysis was monitored every 5 minutes for a total of 30 minutes. Substrate hydrolysis in the absence of inhibitor was linear for up to 15 minutes.
Inhibition of calpain I activity was calculated as the percent decrease in the rate of substrate hydrolysis in the presence of inhibitor relative to the rate in its absence. Comparison between the inhibited and control rates was made within the linear range for substrate hydrolysis. The IC50 S of inhibitors (concentration yielding 50% inhibition) were determined from the percent decrease in rates of substrate hydrolysis in the presence of five to seven different concentrations of the test compound. The results were plotted as percent inhibition versus log inhibitor concentration, and the IC50 was calculated by fitting the data to the four-parameter logistic equation shown below using the program GraphPad Prism (GraphPad Software, Inc., San Diego, Calif.).
The parameters a, b, c, and d are defined as follows: a is % inhibition in the absence of inhibitor, b is the slope, c is the IC50, and d is the % inhibition at an infinite concentration of inhibitor.
Turning to `COCC(NC(=O)c1cc(Cl)nc2ccccc12)C(=O)C(=O)NCCNS(=O)(=O)c1ccccc1` (stereo not shown) [Example 158], the “Calpain I IC50 ** (value in parentheses: % inhibition)” value is 94%.
For `O=C(NCCNS(=O)(=O)c1ccccc1)C(=O)C(Cc1ccccc1)NC(=O)c1nc(-c2ccccc2)nc2ccccc12` (stereo not shown) [Example 153], the “Calpain I IC50 ** (value in parentheses: % inhibition)” value came out at 95%.
Regarding `CCCC(NC(=O)c1cc(Cl)nc2ccccc12)C(=O)C(=O)NCCNS(=O)(=O)c1ccc([N+](=O)[O-])cc1` (stereo not shown) [Example 150], the “Calpain I IC50 ** (value in parentheses: % inhibition)” value is 78%.

The same experiment, now with this note: Table 5; head prints no unit.
With `CCCC(NC(=O)c1cc(Cl)nc2ccccc12)C(=O)C(=O)NCCNS(=O)(=O)c1ccc(-c2ccccn2)s1` (stereo not shown) [Example 156], the half-inhibitory concentration (IC50) (in general, the concentration at which inhibition is half-maximal) was found to be 43 nM.
On to `CCCCC(NC(=O)c1cc(Cl)nc2ccccc12)C(=O)C(=O)NCCNS(=O)(=O)c1ccc(-c2ccccn2)s1` (stereo not shown) [Example 155], for which the half-inhibitory concentration (IC50) was determined as 31 nM.
`CCCC(NC(=O)c1cc(Cl)nc2ccccc12)C(=O)C(=O)NCCNS(=O)(=O)c1ccc(Cl)c(Cl)c1` (stereo not shown) [Example 152]: the IC50 is 325 nM.

Still in this experiment, the particulars now being: Tables 2-4; pH 7.5.
`O=C(NCCCN1CCOCC1)C(=O)C(Cc1ccccc1)NC(=O)c1cc(C#Cc2ccccc2)nc2ccccc12` (stereo not shown) [Example 51]: the IC50 is 424 nM.
With `CCCCCCOCCOCCOCCNC(=O)C(=O)C(Cc1ccccc1)NC(=O)c1cc(C#Cc2ccccc2)nc2ccccc12` (stereo not shown) [Example 9], the half-maximal inhibitory concentration (IC50) was found to be 230 nM.
Regarding `O=C(NCCNS(=O)(=O)c1cccc2cccnc12)C(=O)C(Cc1ccccc1)NC(=O)c1cc(C#Cc2ccccc2)nc2ccccc12` (stereo not shown) [Example 89], the IC50 was determined as 130 nM.
With `O=C(NCCNS(=O)(=O)c1ccccc1)C(=O)C(Cc1ccccc1)NC(=O)c1cc(CCc2ccccc2)nc2ccccc12` (stereo not shown) [Example 137], the 50% inhibitory concentration (IC50) amounted to 16 nM.
For `O=C(NCCCNC(=O)C(=O)C(Cc1ccccc1)NC(=O)c1cc(C#Cc2ccccc2)nc2ccccc12)Nc1ccccc1` (stereo not shown) [Example 98], the IC50 is 126 nM.
As for `O=C(NCCOCCO)C(=O)C(Cc1ccccc1)NC(=O)c1cc(C#Cc2ccccc2)nc2ccccc12` (stereo not shown) [Example 10], the half-maximal inhibitory concentration (IC50) is 630 nM.
Consider `O=C(NCCNS(=O)(=O)C=Cc1ccccc1)C(=O)C(Cc1ccccc1)NC(=O)c1cc(C#Cc2ccccc2)nc2ccccc12` (stereo not shown) [Example 91], for which the IC50 came to 42 nM.
In the case of `CC(NC(=O)C(=O)C(Cc1ccccc1)NC(=O)c1cc(C#Cc2ccccc2)nc2ccccc12)c1ccccc1` (stereo not shown) [Example 27], the IC50 was 510 nM.
Still for that read-out and setting: to `CCCCNC(=O)C(=O)C(Cc1ccccc1)NC(=O)c1cc(C=Cc2ccccc2)nc2ccccc12` (stereo not shown) [Example 130] belongs 105 nM; to `CS(=O)(=O)NCCCNC(=O)C(=O)C(Cc1ccccc1)NC(=O)c1cc(C#Cc2ccccc2)nc2ccccc12` (stereo not shown) [Example 99], 130 nM; to `COC(=O)C(Cc1ccccc1)NC(=O)C(=O)C(Cc1ccccc1)NC(=O)c1cc(C#Cc2ccccc2)nc2ccccc12` (stereo not shown) [Example 109], 655 nM.
In the case of `O=C(NCCNC(=O)C(=O)C(Cc1ccccc1)NC(=O)c1cc(C#Cc2ccccc2)nc2ccccc12)Nc1ccccc1` (stereo not shown) [Example 64], the IC50 stood at 67 nM.
Same read-out and setting: the figure for `CC(=O)NCCNC(=O)C(=O)C(Cc1ccccc1)NC(=O)c1cc(C#Cc2ccccc2)nc2ccccc12` (stereo not shown) [Example 60] is 140 nM.
Regarding `CS(=O)(=O)NCCNC(=O)C(=O)C(Cc1ccccc1)NC(=O)c1cc(C#Cc2ccccc2)nc2ccccc12` (stereo not shown) [Example 93], the IC50 was determined as 180 nM.
For `COC(CNC(=O)C(=O)C(Cc1ccccc1)NC(=O)c1cc(C#Cc2ccccc2)nc2ccccc12)OC` (stereo not shown) [Example 7], the half-maximal inhibitory concentration (IC50) came to 110 nM.
For `C=CCNC(=O)C(=O)C(Cc1ccccc1)NC(=O)c1cc(C#Cc2ccccc2)nc2ccccc12` (stereo not shown) [Example 3], the concentration for half-maximal inhibition (IC50) amounted to 210 nM.
On to `O=C(NCCNS(=O)(=O)c1ccc(-c2ccccn2)s1)C(=O)C(Cc1ccccc1)NC(=O)c1cc(-c2cccs2)nc2ccccc12` (stereo not shown) [Example 146], for which the 50% inhibitory concentration (IC50) was 85 nM.
As to `O=C(NCCNS(=O)(=O)c1cccnc1)C(=O)[C@H](Cc1ccccc1)NC(=O)c1cc(C#Cc2ccccc2)nc2ccccc12` [Example 87], the 50% inhibitory concentration (IC50) worked out at 56 nM.
The same measure, in the same setting: the figure for `O=C(NCCNS(=O)(=O)c1cccc2nsnc12)C(=O)C(Cc1ccccc1)NC(=O)c1cc(C#Cc2ccccc2)nc2ccccc12` (stereo not shown) [Example 71] is 89 nM.
As for `CN(C)S(=O)(=O)NCCNC(=O)C(=O)C(Cc1ccccc1)NC(=O)c1cc(C#Cc2ccccc2)nc2ccccc12` (stereo not shown) [Example 94], the IC50 amounted to 141 nM.
`O=C(NCCNS(=O)(=O)c1cccs1)C(=O)C(Cc1ccccc1)NC(=O)c1cc(C#Cc2ccccc2)nc2ccccc12` (stereo not shown) [Example 90]: the IC50 turned out to be 76 nM.
For the compound `COCCOCCCNC(=O)C(=O)C(Cc1ccccc1)NC(=O)c1cc(C#Cc2ccccc2)nc2ccccc12` (stereo not shown) [Example 8], the IC50 was found to be 570 nM.
With `COCCNC(=O)C(=O)C(Cc1ccccc1)NC(=O)c1cc(C#Cc2ccccc2)nc2ccccc12` (stereo not shown) [Example 11], the IC50 was determined as 480 nM.
As for `O=C(NCc1ccc2c(c1)OCO2)C(=O)C(Cc1ccccc1)NC(=O)c1cc(C#Cc2ccccc2)nc2ccccc12` (stereo not shown) [Example 33], the 50% inhibitory concentration (IC50) came to 388 nM.
As for `COc1ccc2[nH]cc(CCNC(=O)C(=O)C(Cc3ccccc3)NC(=O)c3cc(C#Cc4ccccc4)nc4ccccc34)c2c1` (stereo not shown) [Example 49], the IC50 stood at 160 nM.

Still in this experiment, the particulars now being: Tables 2-4; values in parentheses; at 10,000 nM.
As to `O=C(NCCNS(=O)(=O)c1ccccc1)C(=O)C(Cc1ccccc1)NC(=O)c1ccnc2ccccc12` (single isomer, unassigned) [Example 131], the inhibition (as a rule, the percentage by which the read-out fell short of the control) at 10 µM was determined as 97%.
As for `CC(NC(=O)C(=O)C(Cc1ccccc1)NC(=O)c1cc(C#Cc2ccccc2)nc2ccccc12)c1cccc2ccccc12` (stereo not shown) [Example 26], the inhibition at 10 µM was 31%.
In the case of `O=C(NCCCCCO)C(=O)C(Cc1ccccc1)NC(=O)c1cc(C#Cc2ccccc2)nc2ccccc12` (stereo not shown) [Example 14], the inhibition at 10 µM was found to be 98%.
Still for that read-out and setting: the figure for `COCCNC(=O)C(=O)C(CC(C)C)NC(=O)c1cc(C#Cc2ccccc2)nc2ccccc12` (stereo not shown) [Example 112] is 95%; for `O=C(NCc1cccc([N+](=O)[O-])c1)C(=O)C(Cc1ccccc1)NC(=O)c1cc(C#Cc2ccccc2)nc2ccccc12` (stereo not shown) [Example 40] it is 95%; for `COc1ccc(C(=O)NCCNC(=O)C(=O)C(Cc2ccccc2)NC(=O)c2cc(C#Cc3ccccc3)nc3ccccc23)cc1` (stereo not shown) [Example 57] it is 71%.
The same measure, in the same setting: the figure for `O=C(NCCCn1ccnc1)C(=O)C(Cc1ccccc1)NC(=O)c1cc(C#Cc2ccccc2)nc2ccccc12` (stereo not shown) [Example 50] is 84%; for `O=C(NCC1CC1)C(=O)C(Cc1ccccc1)NC(=O)c1cc(C#Cc2ccccc2)nc2ccccc12` (stereo not shown) [Example 4] it is 100%; for `CC(C)CC(NC(=O)c1cc(C#Cc2ccccc2)nc2ccccc12)C(=O)C(=O)NCCCNS(=O)(=O)c1ccccc1` (stereo not shown) [Example 119] it is 80%.
Take `O=C(NCC(F)(F)F)C(=O)C(Cc1ccccc1)NC(=O)c1cc(C#Cc2ccccc2)nc2ccccc12` (stereo not shown) [Example 2]: the inhibition at 10 µM was 98%.
With `CC(C)CC(NC(=O)c1cc(C#Cc2ccccc2)nc2ccccc12)C(=O)C(=O)NCCNS(=O)(=O)c1ccccc1` (stereo not shown) [Example 117], the inhibition at 10 µM turned out to be 82%.
Consider `COc1ccc(CCNC(=O)C(=O)C(Cc2ccccc2)NC(=O)c2cc(C#Cc3ccccc3)nc3ccccc23)cc1OC` (stereo not shown) [Example 41], for which the inhibition at 10 µM is 88%.
Turning to `O=C(NCC(c1ccccc1)c1ccccc1)C(=O)C(Cc1ccccc1)NC(=O)c1cc(C#Cc2ccccc2)nc2ccccc12` (stereo not shown) [Example 44], the inhibition at 10 µM is 85%.
On the same count and under the same terms, the figure for `O=C(NC12CC3CC(CC(C3)C1)C2)C(=O)C(Cc1ccccc1)NC(=O)c1cc(C#Cc2ccccc2)nc2ccccc12` (stereo not shown) [Example 15] is 41%; for `O=C(NCCNC(=O)[C@@H]1CCCN1S(=O)(=O)c1ccccc1)C(=O)C(Cc1ccccc1)NC(=O)c1cc(C#Cc2ccccc2)nc2ccccc12` (stereo partly shown) [Example 108] it is 94%.
